Measurements as given in ChEMBL document CHEMBL4699592, “Nature-Inspired (di)Azine-Bridged Bisindole Alkaloids with Potent Antibacterial In Vitro and In Vivo Efficacy against Methicillin-Resistant Staphylococcus aureus” (J Med Chem, 2020).
In brackets after ≈: the same amount, converted by molar mass. Activity calls are given as the source filed them. The calls are words filed in the database; no cut-off is given here.

Legend:
Pseudomonas aeruginosa [1] = test: Synergistic antibacterial activity against Pseudomonas aeruginosa ATCC 27853 assessed as FIC after 24 hrs in presence of colistin by checkerboard assay relative to colistin; assay type: functional
Klebsiella pneumoniae [2] = test: Synergistic antibacterial activity against Klebsiella pneumoniae ATCC 700603 assessed as FIC after 24 hrs in presence of colistin by checkerboard assay relative to colistin; assay type: functional
[3] = system: Mycobacterium tuberculosis; test: Antibacterial activity against Mycobacterium tuberculosis H37Rv at 0.78 to 100 uM after 5 days by resazurin dye based fluorescence assay; assay type: functional, organism-based; settings: dose microM 0.78-100, time 5.0 day
Escherichia coli [4] = test: Antimicrobial activity against Escherichia coli ATCC BAA 2469 after 24 hrs by broth microdilution assay; assay type: functional
Enterococcus faecium [5] = test: Antibacterial activity against vancomycin-resistant Enterococcus faecium ATCC 35667 at 0.78 to 100 uM after 24 hrs by broth microdilution method; assay type: functional, organism-based; settings: dose microM 0.78-100, time 24.0 hrs
[6] = target: Pyruvate kinase PKM (Oryctolagus cuniculus) (UniProt P11974); test: Inhibition of rabbit muscle pyruvate kinase up to 12.5 uM using phosphoenolpyruvate as substrate measured for 5 mins by LDH-coupled assay; settings: dose microM <=12.5, time 5.0 min
Chain of Pyruvate kinase PKM (Oryctolagus cuniculus) (P11974 whole entry): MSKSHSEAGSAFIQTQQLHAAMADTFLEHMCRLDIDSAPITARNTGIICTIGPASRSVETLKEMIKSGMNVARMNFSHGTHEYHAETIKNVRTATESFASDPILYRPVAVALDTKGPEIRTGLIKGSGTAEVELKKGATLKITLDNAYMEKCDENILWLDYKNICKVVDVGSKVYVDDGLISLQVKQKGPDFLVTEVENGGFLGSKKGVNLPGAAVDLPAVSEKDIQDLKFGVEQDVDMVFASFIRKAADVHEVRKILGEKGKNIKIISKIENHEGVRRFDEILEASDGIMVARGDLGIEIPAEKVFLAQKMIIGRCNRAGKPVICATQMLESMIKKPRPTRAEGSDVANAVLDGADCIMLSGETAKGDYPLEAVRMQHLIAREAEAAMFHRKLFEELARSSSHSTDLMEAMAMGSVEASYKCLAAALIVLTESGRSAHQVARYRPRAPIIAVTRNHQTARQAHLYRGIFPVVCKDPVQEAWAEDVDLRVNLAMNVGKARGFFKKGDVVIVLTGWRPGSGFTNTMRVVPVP

Staphylococcus aureus [7] = test: Inhibition of Staphylococcus aureus ATCC 700699 N-terminal His6-tagged pyruvate kinase expressed in Escherichia coli NiCo21(DE3) at 12.5 uM using phosphoenolpyruvate as substrate measured for 5 mins by LDH-coupled assay
Staphylococcus aureus [8] = test: Bactericidal activity against […] Staphylococcus aureus ATCC 700699 assessed as reduction in bacterial viability at 5 fold MIC incubated for 6 hrs by time kill assay relative to control; assay type: functional
Klebsiella pneumoniae [9] = test: Antibacterial activity against Klebsiella pneumoniae ATCC 700603 after 24 hrs by broth microdilution method; assay type: functional
Acinetobacter baumannii [10] = test: Synergistic antibacterial activity against Acinetobacter baumannii ATCC BAA-1605 assessed as FICI after 24 hrs in presence of colistin by checkerboard assay; assay type: functional
Staphylococcus aureus [11] = test: Antibacterial activity against vancomycin-sensitive Staphylococcus aureus T144 infected in Balb/c mouse peritonitis-sepsis model assessed as increase in survival at 5 mg/kg, ip measured for 48 hrs; assay type: functional, organism-based
Staphylococcus aureus [12] = test: Bactericidal activity against […] Staphylococcus aureus ATCC 700699 assessed as colony forming units at 5 fold MIC measured after 24 hrs by time kill assay; assay type: functional
Enterococcus faecalis = test: Antibacterial activity against Enterococcus faecalis ATCC 29212 at 0.78 to 100 uM after 24 hrs by broth microdilution method; assay type: functional, organism-based; settings: dose microM 0.78-100, time 24.0 hrs
[13] = Solubility of compound in pH 7.7 PBS buffer; assay type: physicochemical
Klebsiella pneumoniae [14] = test: Synergistic antibacterial activity against Klebsiella pneumoniae ATCC 700603 assessed as FIC after 24 hrs in presence of colistin by checkerboard assay relative to test compound MIC; assay type: functional
Staphylococcus aureus [15] = test: Antibacterial activity against vancomycin-sensitive Staphylococcus aureus T144 infected in Balb/c mouse assessed as increase in wound healing at 5 mg/kg applied topically measured daily for 12 days by microscopic analysis; assay type: functional, organism-based; settings: time 12.0 day
Escherichia coli [16] = test: Synergistic antimicrobial activity against Escherichia coli ATCC BAA 2469 assessed as FICI after 24 hrs in presence of colistin by checkerboard assay; assay type: functional
HepG2 = test: Cytotoxicity against human HepG2 cells assessed as reduction in cell viability at >12.5 uM measured after 48 hrs by resazurin dye based fluorescence assay; settings: hepg2, 48 h
Staphylococcus aureus [17] = test: Antibacterial activity against […] Staphylococcus aureus ATCC 700699 after 24 hrs by broth microdilution method; assay type: functional
Enterococcus faecium [18] = test: Antibacterial activity against vancomycin-resistant Enterococcus faecium ATCC 700221 at 0.78 to 100 uM after 24 hrs by broth microdilution method; assay type: functional, organism-based; settings: dose microM 0.78-100, time 24.0 hrs
Staphylococcus aureus [19] = test: Induction of cell lysis in Staphylococcus aureus ATCC 700699 assessed as decrease in turbidity at 8 fold MIC measured after 2 hrs by photometric method; assay type: functional, organism-based
Cell membrane [20] = test: Induction of cell membrane permeabilization in GFP-expressing Staphylococcus aureus ATCC 700699 assessed as increase in GFP efflux at 5 fold MIC measured after 6 hrs by fluorescence assay
[21] = Cytotoxicity against human CLS-54 cells assessed as reduction in cell viability at >12.5 uM measured after 48 hrs by resazurin dye based fluorescence assay; settings: cls-54, 48 h
Acinetobacter baumannii [22] = test: Synergistic antibacterial activity against Acinetobacter baumannii ATCC BAA-1605 assessed as FIC after 24 hrs in presence of colistin by checkerboard assay relative to test compound MIC; assay type: functional
Staphylococcus aureus [23] = test: Antibacterial activity against methicillin-resistant Staphylococcus aureus USA300 LAC at 0.15 to 25 uM incubated for 24 hrs under low glucose medium by resazurin dye based fluorescence assay; assay type: functional, organism-based; settings: dose microM 0.15-25, time 24.0 hrs
Staphylococcus aureus [24] = test: Antibacterial activity against methicillin-resistant pyruvate kinase deficient Staphylococcus aureus USA300 LAC at 0.15 to 25 uM incubated for 24 hrs under low pyruvate containing medium by resazurin dye based fluorescence assay; assay type: functional, organism-based; settings: dose microM 0.15-25, time 24.0 hrs
Erythrocyte = test: Hemolytic activity against sheep erythrocytes up to 100 uM measured after 1 hr; assay type: ADME, cell-based, Ovis aries
Cell membrane [25] = test: Induction of cell membrane permeabilization in methicillin sensitive Staphylococcus aureus ATCC 29213 at 5 fold MIC measured after 30 mins by propidium iodide/DAPI staining based fluorescence microscopic analysis; assay type: subcellular
THP-1 = test: Cytotoxicity against human THP-1 cells assessed as reduction in cell viability at >=12.5 uM measured after 48 hrs by resazurin dye based fluorescence assay; settings: thp-1, 48 h
Cell membrane [26] = test: Induction of cell membrane permeabilization in GFP-expressing Staphylococcus aureus ATCC 700699 assessed as increase in cellular ATP leakage at 5 fold MIC measured after 0.5 hrs by Bactiter-glo assay; assay type: subcellular
Acinetobacter baumannii [27] = test: Antibacterial activity against Acinetobacter baumannii ATCC BAA-1605 at 0.78 to 100 uM after 24 hrs by broth microdilution method; assay type: functional, organism-based; settings: dose microM 0.78-100, time 24.0 hrs
Acinetobacter baumannii [28] = test: Synergistic antibacterial activity against Acinetobacter baumannii ATCC BAA-1605 assessed as FIC after 24 hrs in presence of colistin by checkerboard assay relative to colistin; assay type: functional
[29] = Selectivity index, ratio of IC50 for cytotoxicity against human THP-1 cells to MIC90 for antibacterial activity against […] Staphylococcus aureus ATCC 700699; assay type: toxicity, cell-based; settings: read-out: Selectivity Index
HEK293 = test: Cytotoxicity against HEK293 cells assessed as reduction in cell viability at >12.5 uM measured after 48 hrs by resazurin dye based fluorescence assay; settings: human, hek293, 48 h
Acinetobacter baumannii [30] = test: Antibacterial activity against Acinetobacter baumannii ATCC BAA-1605 after 24 hrs by broth microdilution method; assay type: functional
Staphylococcus aureus [31] = test: Antibacterial activity against methicillin-resistant Staphylococcus aureus USA300 LAC at 0.15 to 25 uM incubated for 24 hrs under low pyruvate containing medium by resazurin dye based fluorescence assay; assay type: functional, organism-based; settings: dose microM 0.15-25, time 24.0 hrs
Staphylococcus aureus [32] = test: Antibacterial activity against vancomycin-sensitive Staphylococcus aureus T144 infected in Balb/c mouse assessed as reduction in bacterial burden at 5 mg/kg applied topically measured after 12 days by colony counting method; assay type: functional, organism-based; settings: time 12.0 day
Pseudomonas aeruginosa [33] = test: Antibacterial activity against Pseudomonas aeruginosa ATCC 27853 measured after 24 hrs by broth microdilution method; assay type: functional

Clc1ccc2[nH]cc(-c3cccc(-c4c[nH]c5ccc(Cl)cc45)n3)c2c1
FIC (Pseudomonas aeruginosa [1]): 0.5
FIC (Klebsiella pneumoniae [2]): 0.125
Activity [3]: Active
MIC (Escherichia coli [4]): > 100 µM
Activity (Enterococcus faecium [5]): Active
inhibition [6]: inactive
inhibition (Staphylococcus aureus [7]): inactive
fold change (FC) (Staphylococcus aureus [8]): 10000
MIC (Klebsiella pneumoniae [9]): > 100 µM
fractional inhibitory concentration index (FICI) (Acinetobacter baumannii [10]): <=0.3125
Activity (Staphylococcus aureus [11]): Active
Activity (Staphylococcus aureus [12]): <10 CFU/ml
Activity (Enterococcus faecalis): Active
solubility [13]: Insoluble
FIC (Klebsiella pneumoniae [14]): <=0.125
Activity (Staphylococcus aureus [15]): Active
fractional inhibitory concentration index (FICI) (Escherichia coli [16]): <=0.0953
Activity (HepG2): Toxic
MIC90 (Staphylococcus aureus [17]): 0.2 µM (≈ 0.0757 µg/mL)
Activity (Enterococcus faecium [18]): Active
Activity (Staphylococcus aureus [19]): inactive
Activity (Cell membrane [20]): Active
Activity [21]: Toxic
FIC (Acinetobacter baumannii [22]): <=0.0625
Activity (Staphylococcus aureus [23]): Active
Activity (Staphylococcus aureus [24]): Active
Activity (Erythrocyte): Non-Toxic
Activity (Cell membrane [25]): Active
Activity (THP-1): Toxic
Activity (Cell membrane [26]): Active
Activity (Acinetobacter baumannii [27]): Active
FIC (Acinetobacter baumannii [28]): 0.25
selectivity ratio [29]: 32
Activity (HEK293): Toxic
MIC (Acinetobacter baumannii [30]): > 100 µM
Activity (Staphylococcus aureus [31]): Active
Activity (Staphylococcus aureus [32]): Active
MIC (Pseudomonas aeruginosa [33]): > 100 µM
